Experimental data published in ChEMBL document CHEMBL3044881, “Synthesis and biological evaluation of novel series of chalcone derivatives as inhibitors of cyclooxygenase and LPS-induced TNF- with potent antioxidant properties” (Med Chem Res, 2012).

Tests used:
Blood [1] = experiment: Anti-inflammatory activity in Homo sapiens (human) whole blood assessed inhibition of LPS-induced TNF-alpha production at 10 uM treated 30 min before LPS challenge measured after 5 hr; format: functional
Blood [2] = experiment: Anti-inflammatory activity in Homo sapiens (human) whole blood assessed inhibition of LPS-induced TNF-alpha production treated 30 min before LPS challenge measured after 5 hr; format: functional, tissue-based
Blood [3] = experiment: Anti-inflammatory activity in Homo sapiens (human) whole blood assessed inhibition of LPS-induced TNF-alpha production at 1 uM treated 30 min before LPS challenge measured after 5 hr; format: functional
[4] = Antioxidant activity assessed as hydroxyl radical scavenging activity at 10 uM by spectrophotometric analysis; format: functional
[5] = Antioxidant activity assessed as reduction of K3Fe(CN)6 to Fe2+ at 10 uM after 10 min; format: functional; set-up: scale not given: the % may be the effect or the level left
[6] = system: Radical scavenging activity; experiment: Antioxidant activity assessed as DPPH free radical scavenging activity at 10 uM by spectrophotometric analysis; format: functional
[7] = molecular target: T1, Beta-glucuronidase (Homo sapiens) (UniProt P08236); experiment: Inhibition of beta-glucuronidase (unknown origin) using p-nitrophenyl-beta-D-glucopyranosiduronic acid as substrate at 1 mM after 30 min
T1 sequence (whole entry): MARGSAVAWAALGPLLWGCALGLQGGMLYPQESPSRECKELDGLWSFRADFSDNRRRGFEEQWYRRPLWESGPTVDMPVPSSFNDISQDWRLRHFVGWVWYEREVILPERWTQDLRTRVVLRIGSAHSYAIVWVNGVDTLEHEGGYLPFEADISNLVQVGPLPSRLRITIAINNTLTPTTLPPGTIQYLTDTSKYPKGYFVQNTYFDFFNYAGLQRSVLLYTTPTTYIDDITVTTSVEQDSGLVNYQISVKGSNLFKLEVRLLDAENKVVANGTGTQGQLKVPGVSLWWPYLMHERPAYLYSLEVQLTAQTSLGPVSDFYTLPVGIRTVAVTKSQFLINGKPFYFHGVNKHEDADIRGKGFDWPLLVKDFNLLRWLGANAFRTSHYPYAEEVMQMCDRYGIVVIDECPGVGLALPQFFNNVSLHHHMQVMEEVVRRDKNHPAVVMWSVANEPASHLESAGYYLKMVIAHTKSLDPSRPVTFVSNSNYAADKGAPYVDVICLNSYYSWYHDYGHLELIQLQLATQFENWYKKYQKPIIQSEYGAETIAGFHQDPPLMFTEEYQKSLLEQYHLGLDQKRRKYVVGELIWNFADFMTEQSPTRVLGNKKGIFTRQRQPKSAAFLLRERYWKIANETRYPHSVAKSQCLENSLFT

[8] = molecular target: T2, Prostaglandin G/H synthase 2 (Ovis aries) (UniProt P79208); experiment: Inhibition of Ovis aries (sheep) COX2 at 1 mM after 5 min by colorimetric analysis
T2 sequence (whole entry): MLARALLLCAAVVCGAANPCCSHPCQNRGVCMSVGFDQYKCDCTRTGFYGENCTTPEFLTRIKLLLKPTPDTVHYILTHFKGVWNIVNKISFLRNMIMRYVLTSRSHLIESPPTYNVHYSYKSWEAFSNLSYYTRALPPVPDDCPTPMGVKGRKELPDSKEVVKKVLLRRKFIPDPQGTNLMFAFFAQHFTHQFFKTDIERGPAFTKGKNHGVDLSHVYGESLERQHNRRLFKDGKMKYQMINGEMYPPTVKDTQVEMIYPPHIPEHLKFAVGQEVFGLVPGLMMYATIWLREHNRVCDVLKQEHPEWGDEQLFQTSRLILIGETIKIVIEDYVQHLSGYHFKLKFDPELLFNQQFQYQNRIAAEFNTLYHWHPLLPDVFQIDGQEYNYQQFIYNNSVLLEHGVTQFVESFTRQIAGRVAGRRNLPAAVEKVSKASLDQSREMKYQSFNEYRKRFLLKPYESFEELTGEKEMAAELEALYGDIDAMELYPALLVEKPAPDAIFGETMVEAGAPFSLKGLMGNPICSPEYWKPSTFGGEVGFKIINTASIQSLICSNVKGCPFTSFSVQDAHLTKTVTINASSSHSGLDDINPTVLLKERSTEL

Trypsin (Homo sapiens) = Trypsin (Homo sapiens) (UniProt P07477+P07478+P35030); experiment: Inhibition of trypsin (unknown origin) assessed as hydrolysis of bovine serum albumin at 1 mM after 20 min; format: protein assay
[9] = molecular target: T3, Prostaglandin G/H synthase 1 (Ovis aries) (UniProt P05979); conditions: at 1 mM
T3 sequence (whole entry): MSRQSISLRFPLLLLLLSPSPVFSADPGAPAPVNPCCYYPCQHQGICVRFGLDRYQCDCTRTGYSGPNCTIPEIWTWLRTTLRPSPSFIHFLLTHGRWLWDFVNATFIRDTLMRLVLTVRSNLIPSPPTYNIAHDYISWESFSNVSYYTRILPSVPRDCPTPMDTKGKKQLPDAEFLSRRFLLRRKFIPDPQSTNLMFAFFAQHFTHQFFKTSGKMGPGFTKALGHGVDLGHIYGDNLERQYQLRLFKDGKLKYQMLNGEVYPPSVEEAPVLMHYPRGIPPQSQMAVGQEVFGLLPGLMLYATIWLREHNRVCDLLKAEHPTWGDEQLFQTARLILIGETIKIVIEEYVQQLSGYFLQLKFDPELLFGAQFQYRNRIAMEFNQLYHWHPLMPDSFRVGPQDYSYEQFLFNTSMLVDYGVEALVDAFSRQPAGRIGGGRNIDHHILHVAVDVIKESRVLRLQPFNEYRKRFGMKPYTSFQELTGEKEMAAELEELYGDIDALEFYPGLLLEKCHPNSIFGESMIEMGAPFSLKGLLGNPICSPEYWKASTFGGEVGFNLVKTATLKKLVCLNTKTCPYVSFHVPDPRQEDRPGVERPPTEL
Description: Inhibition of Ovis aries (sheep) COX1 at 1 mM after 5 min by colorimetric analysis

[10] = Homo sapiens, Blood, read-out: IC50

SMILES	inhibition at 10 µM (Blood [1])	IC50 (Blood [2]; [10])	inhibition at 1 µM (Blood [3])	Activity [4]	Activity [5]	Activity [6]	inhibition [7]	inhibition [8]	inhibition (Trypsin (Homo sapiens))	inhibition [9]	IC50 (Blood [2])
COc1cc(OC)c(C(=O)/C=C/c2ccccc2Cl)c(O)c1Br	72%	15.9 µM	40%	32.3%	14.3%	15.8%	–	–	–	–	–
COc1ccc(/C=C/C(=O)c2c(OC)cc(OC)c(Br)c2O)c(OC)c1	59%	10.2 µM	21%	28.8%	18.4%	20.2%	41.3%	57.8%	39.5%	52.4%	–
COc1ccc(OC)c(/C=C/C(=O)c2c(OC)cc(OC)c(Br)c2O)c1	57%	10.9 µM	22%	31.6%	22.9%	23%	–	–	–	–	–
CC(=O)Oc1ccccc1C(=O)O	–	–	–	–	–	–	–	38.5%	–	–	–
COc1ccc(/C=C/C(=O)c2c(OC)cc(OC)c(Br)c2O)cc1	53%	7.4 µM	38%	49.4%	34.3%	38.4%	–	–	–	–	–
O=C(O)c1cc(O)c(O)c(O)c1	–	–	–	–	–	91%	–	–	–	–	–
COc1cc(OC)c(C(=O)/C=C/c2cc[nH]c2)c(O)c1Br	78%	0.6 µM	42%	–	26%	26.7%	–	–	–	–	–
COc1cc(/C=C/C(=O)c2c(OC)cc(OC)c(Br)c2O)cc(OC)c1	37%	11.4 µM	25%	23.5%	18.4%	–	–	–	–	–	–
COc1cc(OC)c(C(=O)/C=C/c2cccc(Br)c2)c(O)c1Br	57%	8.2 µM	13%	38.2%	19.6%	24.1%	–	–	–	–	–
COc1cc(OC)c(C(=O)/C=C/c2cccc([N+](=O)[O-])c2)c(O)c1Br	50%	10.1 µM	31%	18.8%	26.2%	23.7%	–	–	–	–	–
O=C1O[C@H]([C@@H](O)CO)C(O)=C1O	–	–	–	41.2%	76.6%	–	–	–	–	–	–
COc1cc(OC)c(C(=O)/C=C/c2cccc(C#N)c2)c(O)c1Br	57%	0.7 µM	26%	25.6%	17.3%	27.4%	–	–	–	–	–
COc1cc(OC)c(C(=O)/C=C/c2cccnc2)c(O)c1Br	85%	0.1 µM	45%	44.1%	16.6%	21.1%	–	–	–	–	–
COc1cc(OC)c(C(=O)/C=C/c2ccccc2C(F)(F)F)c(O)c1Br	52%	3.2 µM	27%	47%	10%	13.7%	–	–	–	–	–
O=C(O)c1ccccc1O	–	–	–	–	–	–	26.5%	–	–	–	–
COc1cc(OC)c(C(=O)/C=C/c2ccccc2F)c(O)c1Br	38%	–	24%	16.8%	29.7%	29.9%	–	–	–	–	Not Active
COc1cc(OC)c(C(=O)/C=C/c2ccc(Cl)cc2)c(O)c1Br	51%	1.4 µM	43%	38.2%	15.7%	18.4%	–	–	–	–	–
COc1cc(OC)c(C(=O)/C=C/c2ccc(Cl)c([N+](=O)[O-])c2)c(O)c1Br	49%	14.2 µM	34%	–	26%	14.3%	–	–	–	–	–
COc1cc(OC)c(C(=O)/C=C/c2ccc(Cl)cc2Cl)c(O)c1Br	53%	8.9 µM	46%	30.2%	17.4%	17.3%	–	–	–	–	–
C[C@H]1C[C@H]2[C@@H]3CCC4=CC(=O)C=C[C@]4(C)[C@@]3(F)[C@@H](O)C[C@]2(C)[C@@]1(O)C(=O)CO [BETAMETHASONE]	87%	1 µM	72%	–	–	–	–	–	–	–	–
COc1cc(OC)c(C(=O)/C=C/c2cccc(F)c2)c(O)c1Br	63%	1.2 µM	36%	–	12.2%	12%	–	–	–	–	–
